Laboratory results published in paper PMC10333360, “Establishing mammalian GLUT kinetics and lipid composition influences in a reconstituted-liposome system” (Nature Communications, 2023).

What was measured:
[1] = biological target: T1, rGLUT5 (Rattus norvegicus, UniProt P43427); test: inhibition of […]-D-fructose uptake by purified rGLUT5 in brain-fraction-seven proteoliposomes; format: biochemical
T1 construct: gene Slc2a5
T1 sequence (P43427 1-502): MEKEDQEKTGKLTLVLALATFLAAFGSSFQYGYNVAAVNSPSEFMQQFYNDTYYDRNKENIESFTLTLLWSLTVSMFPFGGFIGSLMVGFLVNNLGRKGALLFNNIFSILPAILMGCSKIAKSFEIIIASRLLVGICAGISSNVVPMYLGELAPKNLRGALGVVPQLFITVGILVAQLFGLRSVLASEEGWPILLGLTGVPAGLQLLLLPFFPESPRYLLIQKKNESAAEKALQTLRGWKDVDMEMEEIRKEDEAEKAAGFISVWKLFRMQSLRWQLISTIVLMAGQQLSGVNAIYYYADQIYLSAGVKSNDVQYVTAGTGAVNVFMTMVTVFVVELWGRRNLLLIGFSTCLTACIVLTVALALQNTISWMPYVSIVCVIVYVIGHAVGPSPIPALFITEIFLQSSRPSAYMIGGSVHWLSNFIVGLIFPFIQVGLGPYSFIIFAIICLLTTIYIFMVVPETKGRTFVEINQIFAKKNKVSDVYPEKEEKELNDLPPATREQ

[2] = biological target: T1, rGLUT5; test: competitive […]-D-fructose uptake in proteoliposomes, […] compound, […] reduction; format: biochemical

Row | Structure (SMILES) | IC50 [1] [µM] | % reduction [2] [% reduction]
1 | Cc1ccc(NC(=O)Oc2ccc(C)cc2)cc1 [H4, 4-methylphenyl-N-(4-methylphenyl)-carbamate] | 500 | 
2 | Cc1ccc(NC(=O)Oc2ccccc2)cc1 [C2, phenyl-n-(p-tolyl)-carbamate] |  | 20
